Measurements as given in article PMC10574094, “Discovery of a SHP2 Degrader with In Vivo Anti-Tumor Activity” (Molecules, 2023).

Assays:
PTP1B and SHP1 = assay: Western blot of PTP1B and SHP1 in KYSE-520 cells; assay type: cell-based; conditions: 16 h
Experimental: (§1) HEK293, SKBR3, U2OS, MCF7 and A549 cells were grown in DMEM supplemented with 10% FBS, penicillin (50 units/mL), and streptomycin (50 μg/mL) in a 37 °C incubator containing 5% CO2. KYSE-520 and H358 cells were grown in RPMI-1640 supplemented with 10% FBS, penicillin (50 units/mL), and streptomycin (50 μg/mL) in a 37 °C incubator containing 5% CO2. For western-blot analysis, protein samples were separated by SDS-PAGE, transferred to nitrocellulose membranes, and incubated overnight at 4 °C with corresponding primary antibodies diluted in 5% BSA in phosphate-buffered saline Tween (PBST). SuperSignal™ West Pico PLUS (PI34580; Thermo Scientific) was used to visualize the antibodies in the bioanalytical imaging system (Azure Biosystems c500). Anti-p-ERK1/2 (T202/Y204) (4370), and anti-ERK1/2 (4696) were purchased from Cell Signaling Technology. Anti-GAPDH (sc-365062), anti-SHP2 (sc-7384), anti-SHP1 (sc-7289), and anti-Actin (sc-8432) antibodies were purchased from Santa Cruz. Anti-PTP1B (ab244207) antibody was purchased from Abcam. For colony formation assay, a total of approximately 200–500 cells were seeded to each well in a 12-well plate. The wells were then treated with DMSO, compound P9 and 3 at 37 °C for 3 weeks, gently washed, and stained with crystal violet.

full-length SHP2 (1-528) = target: T1, full-length SHP2 (1-528) (Homo sapiens, UniProt Q06124); assay: SHP2 allosteric inhibition assay (DiFMUP substrate); assay type: biochemical
T1 construct: The SHP2 protein (Aa 1–528) was cloned into a pET-21a(+) vector; His; made in house; host or cells: E. coli BL21(DE3)
T1 sequence (Q06124 1-528): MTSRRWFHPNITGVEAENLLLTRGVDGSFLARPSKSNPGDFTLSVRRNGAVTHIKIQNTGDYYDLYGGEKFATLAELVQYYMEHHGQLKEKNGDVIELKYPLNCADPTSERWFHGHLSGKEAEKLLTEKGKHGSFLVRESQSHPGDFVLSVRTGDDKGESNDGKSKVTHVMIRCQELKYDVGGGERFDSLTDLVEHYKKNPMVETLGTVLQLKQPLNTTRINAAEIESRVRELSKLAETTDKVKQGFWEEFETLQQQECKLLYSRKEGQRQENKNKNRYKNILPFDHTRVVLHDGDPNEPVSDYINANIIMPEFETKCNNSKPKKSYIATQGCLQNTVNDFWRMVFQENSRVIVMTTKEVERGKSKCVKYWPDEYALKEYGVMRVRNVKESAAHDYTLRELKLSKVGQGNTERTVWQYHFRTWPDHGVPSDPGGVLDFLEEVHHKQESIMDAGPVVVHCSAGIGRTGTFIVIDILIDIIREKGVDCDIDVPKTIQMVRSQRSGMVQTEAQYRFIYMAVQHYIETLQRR
Experimental: The SHP2 protein (Aa 1–528) was cloned into a pET-21a(+) vector. Bacterial BL21(DE3) (Novagen) was used as an expression host, and the induction of protein expression was carried out in LB media with 1 mM IPTG at 18 °C overnight. Cell pellets were stored at −80 °C for subsequent protein purification. Protein purification was conducted at 4 °C. Frozen cell pellets were lysed by sonication in 40 mL cold lysis buffer (50 mM Tris-HCl, pH 8.0, 150 mM NaCl, 5 mM imidazole, and 1 mM PMSF) per liter cell pellet. Cell lysates were clarified by centrifuging for 15 min at 6000 rpm. The supernatant was incubated with HisPur Ni-NTA resin (Thermo Scientific, Waltham, MA, USA) for 2 h, and then packed onto a column and washed with 50 resin volume of buffer A (50 mM Tris-HCl, pH 8.0, 500 mM NaCl, 5 mM imidazole). The HIS-tagged proteins were eluted with Buffer B (50 mM Tris-HCl, pH = 8.0, 500 mM NaCl, 300 mM imidazole,). Pooled HIS-protein-containing fractions were concentrated, loaded onto a HiLoad 26/600 Superdex 75 column (GE Healthcare Biosciences, Piscataway, NJ, USA), and eluted with storage buffer (50 mM Tris-HCl, pH 8.0, 150 mM NaCl, 1 mM DTT, 10% glycerol). Proteins used for inhibition assays were purified using Ni-NTA resin (Qiagen, Hilden, Germany) followed by size exclusion column chromatography (ÄKTA pure, Cytiva, Marlborough, MA, USA) and the purity was determined to be >95% by SDS-PAGE and Coomassie staining. The protein was aliquoted and stored at −80 °C.
The catalytic activity of SHP2 (1-528) was assayed with 6,8-Difluoro-4-Methylumbelliferyl Phosphate (DiFMUP, Invitrogen, cat# D6567) as a substrate in 3,3-Dimethylglutaric acid (DMG) buffer (50 mM DMG, pH 7.0, 1 mM EDTA, 18 mM NaCl, 0.01% Triton X-100) at 25 °C. To determine the IC50 values, the assays were performed in 96-well plates (Corning Costar 3915). Series diluted compounds were incubated with 0.5 nM of SHP2 and 0.5 μM of peptide IRS1_pY1172(dPEG8)pY1222 (sequence H2N-LN(pY)IDLDLV(dPEG8)LST(pY)ASINFQK-amide). After 30 min incubation at room temperature, the substrate DiFMUP was added to the reaction (200 μM final concentration, total reaction volume is […]) and incubated at 25 °C for 10 min. The reaction was then quenched by adding 40 μL of 160 μM bpV(Phen) (Sigma–Aldrich, cat# SML0889) solution. The fluorescence signal was monitored with a CLARIOstar Plus Microplate Spectrophotometer (BMG Labtech) using excitation and emission wavelengths of 340 and 450 nm, respectively. The inhibitordose-response curves were analyzed using normalized IC50 regression curve fitting with control-based normalization. Data were fitted using Prism GraphPad 9.2.0.

KYSE-520 cells = assay: CCK-8 cell proliferation assay; assay type: cell-based; conditions: Homo sapiens, 168 h; KYSE-520, CCK-8, 7 days; read-out: growth inhibition IC50
Experimental: The cell proliferation inhibition EC50 was determined by CCK-8 assay. KYSE-520 cells were seeded at 5 × 10^3 cells/well in 96 well plates. After 24 h, P9 was added to the medium starting at 80 μM in a 2-fold dilution rate of 0.16 μM. After 7 days, 10 μL of CCK-8 test solution (APExBIO Technology, Houston, TX, USA) was added into each well and incubated for 2 h at 37 °C. The optical density (OD) at 450 nm was measured with a microplate reader (Molecular Device, Sunnyvale, CA, USA). The cell viability rate at different concentrations of P9 treatment was determined with Prism, version 9.5.1 (GraphPad, San Diego, CA, USA).

[1] = test system: SHP1, PTP1B, TC-PTP, LYP, PRL1, PRL2; assay: Western blot of other PTPs in HEK293 cells (degrader selectivity); assay type: cell-based, human; conditions: 1 μM P9, 16 h
Experimental: as §1

## Cc1ncsc1-c1ccc([C@H](C)NC(=O)[C@@H]2C[C@@H](O)CN2C(=O)[C@@H](NC(=O)CCCCCCCCCN2CCN(C(=O)CCCCCC3(CN)CCN(c4cnc(Sc5cccc(Cl)c5Cl)c(N)n4)CC3)CC2)C(C)(C)C)cc1 [P9, (2S,4R)-1-((S)-2-(10-(4-(6-(1-(6-amino-5-((2,3-dichlorophenyl)thio)pyrazin-2-yl)-4-(aminomethyl)piperidin-4-yl)hexanoyl)piperazin-1-yl)decanamido)-3,3-dimethylbutanoyl)-4-hydroxy-N-((S)-1-(4-(4-methylthiazol-5-yl)phenyl)ethyl)pyrrolidine-2-carboxamide]
PTP1B and SHP1
  protein levels of PTP1B and SHP1: not affected
full-length SHP2 (1-528); Table S3, relative to SHP2
  Fold selectivity (SHP2): 1
full-length SHP2 (1-528); full length SHP2, enzymatic assay
  IC50: 95 ± 3.4 nM
KYSE-520 cells
  IC50: 640 ± 130 nM
[1]
  protein level of other PTPs: none of the other PTPs including SHP1, PTP1B, TC-PTP, LYP, PRL1, and PRL2, were affected
